Test results reported in patent publication US20050222250A1, “Curcumin for the prevention and/or treatment of tissue damage” (priority 2002, published 2005).

Assays:
[1] = system: animals (rats, cats, dogs, pigs and monkeys); conditions: fed to animals over a period of 60 weeks; cited from earlier work
[2] = system: radiation-induced oral mucositis (mucosal ulceration) in the tongue of rats; assay: Radiation-induced oral mucositis in rat tongue, single dose studies (Example 2); format: in vivo, Sprague-Dawley rats; conditions: single dose irradiation of rat tongue; 0.5 ml per day oral gavage; placebo water
Text: The animals were maintained, and all experimental procedures performed in compliance with the Animal (Scientific Procedures) Act 1986. While under anaesthesia the animal's tongue was slightly extended outside and a region of the underside of the tongue was irradiated in situ with single doses of 2.27 MeV β-rays from a 5 mm or 11 mm diameter ^90Sr/^90Y plaque. The dose-rate of the 5 mm ^90Sr/^90Y plaque was ˜10 Gy/min and that of 11 mm source was ˜3 Gy/min at the surface of the mucus membrane 5 mm source was used for single dose study and 11 mm source was used for fractionated studies. The irradiation was carried out by simply positioning the sealed ^90Sr/^90Y plaque in contact with the surface of the tongue. The tongue was stretched gently and radioactive source was placed with a uniform pressure in all cases in order to avoid any local hypoxia. […]
A total of 144 rats were used for this part of study. […] From the day after irradiation, until any acute radiation-induced oral mucosal lesion had healed, the animals' tongues were assessed daily for the presence of radiation-induced mucositis (mucosal ulceration) under light anaesthesia, maintained with a 1.5% Halothane, oxygen mixture. […] The dose modification factor (DMF), defined as the ratio of the dose of radiation to cause mucositis in ‘active’ agent group to that in ‘placebo’ group, was calculated. […]

| SMILES | Doses that have shown no toxicity [1] | Dose modification factor (DMF), active agent group vs placebo group [2] |
| --- | --- | --- |
| COc1cc(/C=C/C(=O)CC(=O)/C=C/c2ccc(O)c(OC)c2)ccc1O [Curcumin, diferuloylmethane] | 500-5000 mg/kg body weight | – |
| Cc1c(C)c2c(c(C)c1O)CC[C@@](C)(CCC[C@H](C)CCC[C@H](C)CCCC(C)C)O2 [α-tocopherol, 5,7,8-trimethyltocol] | – | 1.05 |
